Measurements from ChEMBL document CHEMBL1133910, “N-hydroxyformamide peptidomimetics as TACE/matrix metalloprotease inhibitors: oral activity via P1' isobutyl substitution” (Bioorg Med Chem Lett, 2001).
Activity calls are given as the source filed them. The calls are words filed in the database; no cut-off is given here.

Legend:
Stromelysin-1 [1] = biological target: T1, Stromelysin-1 (Homo sapiens, UniProt P08254); assay: Inhibition of Matrix metalloprotease-3
Mus musculus [2] = assay: In vivo inhibition of Murine Lipopolysaccharide induced plasma TNF on peroral administration of the compound; type: functional; set-up: concentration or dose not given beside the values
[3] = Compound was evaluated for inhibition of cellular release of TNF-alpha from MonoMac-6 cells; type: functional, cell-based; conditions: Homo sapiens, MONO-MAC-6
[4] = biological target: T2, Disintegrin and metalloproteinase domain-containing protein 17 (Homo sapiens, UniProt P78536); assay: Inhibition of Tumor necrosis factor alpha converting enzyme
Interstitial collagenase = biological target: T3, Interstitial collagenase (Homo sapiens, UniProt P03956); assay: Inhibition of Matrix metalloprotease-1
T3 sequence (P03956 whole entry): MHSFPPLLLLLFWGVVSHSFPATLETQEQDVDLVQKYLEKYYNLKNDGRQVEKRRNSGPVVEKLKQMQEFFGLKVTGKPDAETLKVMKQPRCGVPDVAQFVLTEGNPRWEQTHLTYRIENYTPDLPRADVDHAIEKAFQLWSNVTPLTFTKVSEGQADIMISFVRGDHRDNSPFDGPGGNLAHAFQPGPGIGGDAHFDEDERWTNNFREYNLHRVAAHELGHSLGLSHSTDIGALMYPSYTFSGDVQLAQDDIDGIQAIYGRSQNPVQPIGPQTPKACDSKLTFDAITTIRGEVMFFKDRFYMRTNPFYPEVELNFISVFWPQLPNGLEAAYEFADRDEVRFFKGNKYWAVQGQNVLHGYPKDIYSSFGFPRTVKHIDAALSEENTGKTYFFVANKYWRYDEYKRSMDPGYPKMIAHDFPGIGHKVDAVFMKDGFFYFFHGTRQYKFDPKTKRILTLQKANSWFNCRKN

[5] = biological target: Matrix metalloproteinase-9 (Homo sapiens, UniProt P14780); assay: Inhibition of Matrix metalloprotease-9
Stromelysin-1 [6] = biological target: T1, Stromelysin-1; assay: Inhibition of matrix metalloprotease-3 (MMP3)
Mus musculus [7] = assay: In vivo inhibition of Murine Lipopolysaccharide induced plasma TNF on peroral administration of the compound; IA means Inactive; type: functional, organism-based
[8] = biological target: T2, Disintegrin and metalloproteinase domain-containing protein 17; assay: Inhibition of TNF-alpha converting enzyme (TACE)
Mus musculus [9] = assay: In vivo inhibition of Murine Lipopolysaccharide induced plasma TNF on peroral administration of the compound; IA means inactive; type: functional, organism-based
[10] = Area under curve was determined for the compound by intravenous administration of 1.2 mg/kg in dog; type: ADME, organism-based, Canis lupus familiaris; set-up: dose 1.2 mg/kg, route intravenous; conditions: in vivo
[11] = Area under curve was determined for the compound by intravenous administration of 3.4 mg/kg in rat; type: ADME, organism-based; set-up: dose 3.4 mg/kg, route intravenous; conditions: in vivo
[12] = Bioavailability by intravenous administration of 3.4 mg/kg in rat; type: ADME, organism-based; conditions: in vivo
[13] = Half life by intravenous administration of 1.2 mg/kg in dog; type: ADME, organism-based, Canis lupus familiaris; set-up: dose 1.2 mg/kg, route intravenous; conditions: in vivo
[14] = Bioavailability by intravenous administration of 1.2 mg/kg in dog; type: ADME, organism-based, Canis lupus familiaris; conditions: in vivo
[15] = Half life by intravenous administration of 3.4 mg/kg in rat; type: ADME, organism-based; set-up: dose 3.4 mg/kg, route intravenous; conditions: in vivo
[16] = Maximum concentration by intravenous administration of 1.2 mg/kg in dog; type: ADME, organism-based, Canis lupus familiaris; set-up: dose 1.2 mg/kg, route intravenous; conditions: in vivo
[17] = Clearance by intravenous administration of 1.2 mg/kg in dog; type: ADME, organism-based, Canis lupus familiaris; set-up: dose 1.2 mg/kg, route intravenous; conditions: in vivo
[18] = Clearance by intravenous administration of 3.4 mg/kg in rat; type: ADME, organism-based; set-up: dose 3.4 mg/kg, route intravenous; conditions: in vivo
Mus musculus [19] = assay: Percent inhibition of Murine Lipopolysaccharide induced plasma TNF on peroral administration of the compound; type: functional
[20] = Maximum concentration by intravenous administration of 3.4 mg/kg in rat; type: ADME, organism-based; set-up: dose 3.4 mg/kg, route intravenous; conditions: in vivo

T1 sequence (P08254 whole entry): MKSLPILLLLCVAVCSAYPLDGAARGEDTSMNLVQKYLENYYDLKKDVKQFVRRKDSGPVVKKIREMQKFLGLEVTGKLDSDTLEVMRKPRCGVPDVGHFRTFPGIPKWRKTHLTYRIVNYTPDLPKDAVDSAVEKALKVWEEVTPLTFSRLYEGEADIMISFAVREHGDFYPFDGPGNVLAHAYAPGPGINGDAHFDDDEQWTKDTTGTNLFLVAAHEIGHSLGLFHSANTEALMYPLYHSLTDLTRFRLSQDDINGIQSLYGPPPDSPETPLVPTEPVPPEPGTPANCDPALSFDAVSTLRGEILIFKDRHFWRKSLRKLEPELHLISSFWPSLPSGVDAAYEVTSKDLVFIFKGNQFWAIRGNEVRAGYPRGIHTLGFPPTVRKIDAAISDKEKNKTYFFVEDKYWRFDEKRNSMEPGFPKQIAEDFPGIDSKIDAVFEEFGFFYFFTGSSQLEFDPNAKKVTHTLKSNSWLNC
Matrix metalloproteinase-9, sequence (P14780 whole entry): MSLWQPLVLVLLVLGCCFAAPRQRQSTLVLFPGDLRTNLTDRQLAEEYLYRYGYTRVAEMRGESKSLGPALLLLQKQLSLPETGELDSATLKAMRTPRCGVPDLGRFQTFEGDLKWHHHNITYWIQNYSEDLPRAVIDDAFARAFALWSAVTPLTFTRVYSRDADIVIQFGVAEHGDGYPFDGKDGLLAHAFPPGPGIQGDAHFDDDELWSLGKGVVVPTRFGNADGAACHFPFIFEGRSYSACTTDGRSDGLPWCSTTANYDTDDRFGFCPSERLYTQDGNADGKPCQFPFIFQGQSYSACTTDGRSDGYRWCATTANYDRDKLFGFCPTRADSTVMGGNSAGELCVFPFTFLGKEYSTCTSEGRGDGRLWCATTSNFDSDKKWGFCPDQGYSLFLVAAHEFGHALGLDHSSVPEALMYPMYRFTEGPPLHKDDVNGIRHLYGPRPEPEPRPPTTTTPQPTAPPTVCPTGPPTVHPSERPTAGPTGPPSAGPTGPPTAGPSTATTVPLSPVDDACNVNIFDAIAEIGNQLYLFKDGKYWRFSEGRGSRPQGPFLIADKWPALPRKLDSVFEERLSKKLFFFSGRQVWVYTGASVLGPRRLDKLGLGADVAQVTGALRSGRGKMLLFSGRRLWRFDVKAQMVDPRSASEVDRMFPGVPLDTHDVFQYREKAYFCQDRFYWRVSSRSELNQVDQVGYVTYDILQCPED
T2 sequence (P78536 whole entry, the tested form may be a part): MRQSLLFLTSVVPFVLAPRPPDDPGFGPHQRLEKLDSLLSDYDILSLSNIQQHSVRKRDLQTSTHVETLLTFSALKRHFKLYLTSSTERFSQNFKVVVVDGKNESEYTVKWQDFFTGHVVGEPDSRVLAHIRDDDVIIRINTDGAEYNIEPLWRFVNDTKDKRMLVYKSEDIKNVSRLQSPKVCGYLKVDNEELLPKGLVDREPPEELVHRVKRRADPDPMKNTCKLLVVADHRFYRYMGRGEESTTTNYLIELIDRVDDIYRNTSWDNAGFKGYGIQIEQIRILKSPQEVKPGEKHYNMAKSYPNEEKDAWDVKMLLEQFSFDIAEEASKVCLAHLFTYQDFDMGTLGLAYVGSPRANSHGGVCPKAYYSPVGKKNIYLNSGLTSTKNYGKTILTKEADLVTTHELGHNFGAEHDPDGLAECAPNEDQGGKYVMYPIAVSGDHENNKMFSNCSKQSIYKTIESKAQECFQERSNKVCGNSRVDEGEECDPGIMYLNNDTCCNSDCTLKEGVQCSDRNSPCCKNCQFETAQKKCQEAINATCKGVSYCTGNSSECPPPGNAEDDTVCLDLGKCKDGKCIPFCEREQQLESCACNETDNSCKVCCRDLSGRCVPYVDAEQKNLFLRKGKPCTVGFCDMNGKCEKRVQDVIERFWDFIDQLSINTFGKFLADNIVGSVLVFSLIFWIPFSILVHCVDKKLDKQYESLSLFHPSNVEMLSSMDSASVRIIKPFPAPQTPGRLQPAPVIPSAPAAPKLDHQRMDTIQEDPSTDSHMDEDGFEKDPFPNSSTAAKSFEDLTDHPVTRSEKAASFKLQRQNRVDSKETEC

SMILES | Ki (Stromelysin-1 [1]) | IC50 [3] | Ki (Interstitial collagenase) | Ki [5] | Ki (Stromelysin-1 [6]) | Inhibition (Mus musculus [2]) | Ki [4] | further results
CC[C@@H]([C@@H](CC(C)C)C(=O)N[C@H](C(=O)Nc1ccccn1)C(C)(C)C)N(O)C=O | – | 0.304 µM | 0.047 µM | 0.089 µM | 0.153 µM | 61% | 0.029 µM | –
CNC(=O)[C@@H](NC(=O)[C@@H](CC(=O)NO)CC(C)C)C(C)(C)C [RO-319790] | 0.31 µM | 5.72 µM | 0.002 µM | 0.002 µM | – | – | – | inhibition (Mus musculus [7]): inactive; Ki [8]: 0.087 µM
CC(C)C[C@@H](C(=O)N[C@H](C(N)=O)C(C)(C)C)[C@H](C)N(O)C=O | 0.406 µM | 3.07 µM | 0.181 µM | 0.033 µM | – | – | 0.156 µM | –
CNC(=O)[C@@H](NC(=O)[C@H](CC(C)C)[C@H](C)N(O)C=O)C(C)(C)C | 2.32 µM | 2.95 µM | 0.017 µM | 0.021 µM | – | – | 0.142 µM | –
CCC(C)[C@H](NC(=O)[C@H](CC(C)C)[C@H](CC)N(O)C=O)C(=O)Nc1ccccn1 (stereo not given in full) | – | 1.41 µM | 0.055 µM | 0.073 µM | 0.038 µM | 62% | 0.031 µM | –
CC[C@H](C)[C@H](NC(=O)[C@H](CC(C)C)[C@H](CC)N(O)C=O)C(=O)Nc1nccs1 | – | 0.092 µM | 0.042 µM | 0.024 µM | 0.045 µM | 48% | 0.011 µM | –

Further lines, with some results ahead:

Ki (Stromelysin-1 [1]) | IC50 [3] | Ki (Interstitial collagenase) | Ki [5] | Ki (Stromelysin-1 [6]) | SMILES | Inhibition (Mus musculus [2]) | Ki [4] | further results
0.12 µM | 0.681 µM | 0.036 µM | 0.017 µM | – | CC(C)C[C@@H](C(=O)N[C@H](C(=O)Nc1nccs1)C(C)C)[C@H](C)N(O)C=O | 61% | 0.027 µM | –
0.354 µM | 3.96 µM | 0.17 µM | 0.098 µM | – | CC(C)C[C@@H](C(=O)N[C@@H](CC(C)(C)C)C(=O)Nc1nccs1)[C@H](C)N(O)C=O | – | 0.064 µM | inhibition (Mus musculus [9]): inactive
0.08 µM | 1.69 µM | 0.097 µM | 0.017 µM | – | CC(C)C[C@H](NC(=O)[C@H](CC(C)C)[C@H](C)N(O)C=O)C(=O)Nc1nccs1 | – | 0.055 µM | inhibition (Mus musculus [9]): inactive
0.437 µM | 0.245 µM | 0.027 µM | 0.034 µM | – | CC(C)C[C@@H](C(=O)N[C@H](C(=O)Nc1nccs1)C(C)(C)C)[C@H](C)N(O)C=O | – | 0.02 µM | AUC [10]: 2.1 µg·h/mL; AUC [11]: 0.957 µg·h/mL; bioavailability [12]: 26%; half-life [13]: 2.8 h; bioavailability [14]: 44%; half-life [15]: 3.4 h; Cmax [16]: 4.53 µg/mL; clearance [17]: 0.6 L/h/kg; clearance [18]: 3.72 L/h/kg; Inhibition (Mus musculus [19]): 60%; Cmax [20]: 2.33 µg/mL
0.093 µM | 0.27 µM | 0.041 µM | 0.029 µM | – | CC[C@H](C)C(NC(=O)[C@H](CC(C)C)[C@H](C)N(O)C=O)C(=O)Nc1nccs1 (single isomer, unassigned) | 48% | 0.02 µM | –
– | 0.2 µM | 0.016 µM | 0.028 µM | 0.135 µM | CC[C@@H]([C@@H](CC(C)C)C(=O)N[C@H](C(=O)Nc1nccs1)C(C)(C)C)N(O)C=O | 52% | 0.016 µM | –
